Source: patent US20220273926A1, “DRUG DELIVERY USING MICRONEEDLE ARRAYS” (BOARD OF REGENTS OF THE UNIVERSITY OF NEBRASKA, priority 2019, published 2022)
Where two headings read alike, the source gives them in different places.

What was measured:
[1] = Release profile from hydrogel-filled MNAs; format: physicochemical; settings: three concentrations, 3 mm and 2 mm MNAs, 72 hrs in PBS
Procedure: MNAs were filled with this BSA-containing alginate solution and Calcium Chloride (CaCl2) used for crosslinking following this protocol: first placing MNAs in 3% (w/v) agarose gel containing 2% (v/v) CaCl2 for few minutes and then pipetting additional 2% (v/v) CaCl2 over the tops to ensure complete crosslinking.
To perform a 3-day long release study, each needle array was placed in 0.5 mL of PBS. Samples were taken from solution at each time point over the course of 72 hrs and were stored in micro vials at room temperature over the duration of the release. For the final evaluation of protein release, 150 μL of each sample added to 96 well plates mixed with 150 μL of working reagent. Working reagent solution was made from a mixture of reagent A, B and C of BCA protein kit with the ratio of 24:24:1. Once reagents and samples were mixed, plates were incubated at 37° C. for an hour, and a plate reader (BioTech) used to read the absorption. Absorption values from the plate reader converted to concentrations using a calibration curve.
After filling the MNAs with the solution, PEGDA was photocrosslinked for approximately 30 seconds using a handheld UV light. A similar experimental protocol followed to study protein release from PEGDA over the course of 72 hours.

[2] = topical delivery; 100 μL of 5 mg/mL; 3% agarose; 30 min
Excerpt: Agarose and other agar-based hydrogels have been widely used as skin models in previous studies^37,38. […] The intensity is also plotted quantitatively against the depth of penetration (FIG. 15C).

[3] = system: full-thickness wounds on the dorsum of Yorkshire pigs; settings: day 14
Procedure: To serve as controls, a group of wounds was treated with PBS for evaluating the potential effects of MNA administration, and a group was left untreated.
Large animal studies: The procedures for porcine animal studies were performed at Toxikon Corporation (Bedford, Mass.). The study protocol was approved by Toxikon's Institutional Animal Care and Use Committee, and conformed to federal animal laws and regulations. Three Yorkshire pigs (Animal Biotech Industries, Danboro, Pa.), 70-80 kg each, were anesthetized by intramuscular administration of 3.3 mg/kg ketamine, 2.2 mg/kg xylazine, 1.1 mg/kg acepromazine, and 0.02 mg/kg atropine. 0-5% isoflurane and oxygen were provided to maintain general anesthesia. Pain management was achieved by administration of a transdermal patch releasing 2-3 mkg/kg/h fentanyl per hour for 72 hours (Duragesic, Janssen). In addition, buprenorphine 0.01-0.03 mg/kg was delivered intramuscularly at the end of the surgery.
Circular full-thickness wounds (d=2.5 cm) were created on the dorsum of each pig. After marking the wounds in parallel paraspinal stripes, the outlines were tattooed with red ink using an electric tattoo marker (Spaulding & Rogers Mfg., Inc., Voorheesville, N.Y.). Full-thickness wounds down to fascia were excised. […]
For macroscopic wound evaluation, wound contraction was measured of the tattooed margins from macroscopic wound photos using Image J software (NIH, Bethesda, Md.). Open wound area (S1) and the area inside tattooed margin (S2) were measured and compared with original wound size on day 0 (S0=5 cm^2). The wound contraction and non-contracted wound closure contributions were calculated as 100×(S2−S0)/S0 and 100×(S2−S1)/S0, respectively.
In the swine experiment, the wounds were excised using a scalpel and fixed in formalin for immunohistochemical analysis. […] The wound sections were immunostained for von Willebrand Factor (vWF), smooth muscle actin (SMA), and CD3 based on manufacturers' protocols and the amount of positive staining was quantified in a blinded-manner using a light microscope.

[4] = system: full thickness skin wounds of diabetic (Lepr^db) mice
Procedure: To further investigate the potential benefits of MNAs in treatment of diabetic and chronic wounds, an animal study was conducted on diabetic mice with cutaneous wounds. Homozygous mice for the diabetes spontaneous mutation (Lepr^db) become identifiably obese around 3 to 4 weeks of age. On day 10 to 14 elevations of plasma insulin begin and at four to eight weeks the blood sugar level elevates. With a delayed wound healing and an increased metabolic efficiency this mouse strain serves as a suitable model for chronic wound research.
On day one, all the mice received a square shaped 1 cm×1 cm full thickness skin cut on their dorsum. The animals were kept untreated for 5 days to allow the formation of wound crust. On days 5 and 7 post-surgery, animals received the planned treatment. T weight of each animal was recorded periodically, and wound areas were assessed every two days and photographed to monitor investigate wound closure (FIG. 5A).
Animal Studies: All animal procedures were reviewed and approved by the Institutional Animal Care and Use Committee (IACUC) of the University of Nebraska, Lincoln. Five weeks old B6.BKS(D)-Lepr^db/J mice were purchased from the Jackson Laboratory (Bar Harbor, Me.) weighted between 34-43 grams and accommodated in University of Nebraska, Life Science, animal facility for one week before the wound injury procedure. The animals were on special food diet during the entire research period.
In the day 1, all animals were anesthetized by 5% of isoflurane using anesthesia system, (VetFlo, Kent Scientific, Torrington, Conn.) via a nose cone. The hair on the dorsal region of animals was shaved using an electric razor. The skin was sterilized, and a full thickness skin cut of 1 cm×1 cm was created. The wounds were covered with a regular bandage. All mice placed back in separate cages individually after recovering from anesthesia. Animals were monitored for wound condition, vitals and wellbeing, and weight gain/loss trends daily.
To simulate the real wound conditions covered by crust and necrotic tissues, treatment start points were on day 5 by which a complete crust was formed on the wounds. […] In the topical delivery group, 100 μl of the solution was poured topically using a pipette on the top of the wound and the animals were let to sit for about 10 minutes, the wound was then covered by a fresh dressing. In MNAs delivery group, 100 μl of the solution was delivered using the MNAs and after 10 min, the microneedles were removed and the wound was covered by a fresh dressing. Animals of negative control received no treatment. […] Wounds were inspected every 2 days and the bandage was changed and a picture of the wound was taken using a digital camera.
On day 19, all animals were sacrificed using 20% CO2 volume displacement (flow rate cage volume/per minute) poisoning overdose and wound tissue was harvested and fixed in using 4% paraformaldehyde (PFA).
Histology: Frozen sections of haired skin were stored in a −80° C. ultralow freezer prior to sectioning on a cryotome. The sections of skin were cut 10 μm thick using a Thermo Scientific CryoStar NX50, routinely stained with hematoxylin and eosin on a Leica ST5020 H&E stainer, and coverslipped with a Leica CV5030 coverslipper. A veterinary anatomic pathologist who is board certified by the American College of Veterinary Pathologists performed all histological evaluations. Immunohistochemistry was done manually using Anti-CD31, rabbit host species (ab28364, Abcam, MA, USA).

[5] = system: HUVECs; settings: VEGF equivalent to 50 ng/mL through MNAs
Procedure: To develop a method for mimicking the crust and necrotic tissue covering chronic wounds, 12-well cell culture inserts were used and covered with […] of 3% (w/v) agarose solution […]. […] Similar techniques were applied for scratch assay with seeding HUVECs in the bottom of chamber covered by 2 mL basal media.
To assess the effectiveness of the released factors, a standard scratch assay was conducted. Wells of a 12-well plate were coated by Geltrex. After aspirating the Geltrex from the wells, 30,000 cells per well were seeded and cultured until a confluent monolayer formed in each well. The cells were cultured in basal media supplemented with 2% FBS for 6 hours. prior to the experiments. On the day of experiments, an approximately 200 μm wide scratch was formed using a 200 μL micropipette tip. […] Fixed points of each well (two points per well) were imaged using a Nikon Ti inverted microscope after 0, 2, and 4 hours after each treatment application. A total of 4 samples per condition was tested.

[6] = system: full-thickness skin wounds of diabetic (Lepr^db) mice; settings: for average healing rate: 100 μL of 500 ng/mL on days 5 and 7; for histological features at the central region of the wounds (H&E): day 19
Excerpt: On the day of surgery, mice received a full thickness (1×1 cm^2) skin wound on their dorsum. Mice with the full thickness (1×1 cm^2) wound on their dorsum were kept untreated for 5 days to allow eschar formation. Animals received treatment via three different delivery methods on days 5 and 7 post-surgery. […] Similar to in vitro experiments, to minimize the potential injury upon the delivery of therapeutics intradermally using LJI, a layer of agarose was placed between the wound and the nozzle.
Small Animal studies: Murine animal procedures were approved by the Institutional Animal Care and Use Committee (IACUC) of the University of Nebraska, Lincoln. Six to seven weeks old B6.BKS(D)-Lepr^db/J mice were obtained from the Jackson Laboratory (Bar Harbor, Me.). Since this mouse strain had congenic obesity, the animals were put on a special food diet. […] On day 0 of the study, 5% isoflurane was provided via a nose cone for anesthetization of animals and 3% isoflurane was used for maintaining sedation. The hair on the dorsal area was shaved, the skin was sterilized, and a full-thickness skin cut of 1 cm×1 cm was created. Buprenorphine SR was administered for pain relief at the time of surgery.
Animals received treatments on day 5 and day 7 post-surgery. […] To minimize the potential damage of solutions delivered by LJI to mice, an approximately 9 mm thick layer of 5% (w/v) of agarose was placed between the LJI nozzle and animal skin (FIG. 21).
Animals were inspected daily for wound closure, weight change and vitals. All animals were sacrificed on day 19 post-surgery using CO2 asphyxiation using a 30% oxygen displacement rate. The wound tissue was harvested and fixed in 10% neutral buffered formalin for further histological study.
Histological analysis: Sections of harvested skin were fixed by immersion in 10% neutral buffered formalin and routinely processed on a Tissue-Tek VIP 5 Tissue Processor. After processing, the tissues were embedded in paraffin blocks and were sectioned at 4 μm thick on a HM 355S Thermo Scientific microtome. Slides were deparaffinized and stained with H&E using a Leica ST5020 H&E stainer. Histological evaluation was conducted by a board certified veterinary anatomic blinded to the experiment.
Immunohistochemistry staining: In the murine study, formalin-fixed and paraffin-embedded biopsies were cut into 7 μm thick samples. Slides were deparaffinized, hydrated and washed using xylene and ethanol solutions. Subsequently, a heat mediated antigen retrieval step was performed at 95° C. for […]. The sections were blocked using 2.5% normal horse serum for 30 min at room temperature, and incubated with primary antibody (anti-CD31) at 4° C. overnight. Tissue sections were then treated with 3% hydrogen peroxide for 10 minutes at room temperature to block the peroxidase activity. Secondary antibody was then applied for 30 minutes at room temperature. To form a colored precipitate, DAB solution was incubated on the slides for 3-5 minutes. Finally, counterstaining was performed using hematoxylin for 30 seconds, and sections were dehydrated, washed, covered with mounting solution, and cover slipped.

## CCN(CC)c1ccc2c(-c3ccccc3C(=O)O)c3ccc(=[N+](CC)CC)cc-3oc2c1.[Cl-] [rhodamine B]
[1]
  release profile from alginate-filled MNAs: curved burst release over the first 6 hours, with slower, more linear release over the next 3 days
[2]
  depth after which dye intensity promptly decreased: ~1 mm

## vascular endothelial growth factor [VEGF]
[3]; VEGF delivery
  expression of SMA+ myofibroblasts (IHC): decreased the expression of SMA+ myofibroblasts
[3]; intradermal (MNA) delivery
  vascularization (vWF expression): a significant enhancement in vascularization
[3]; topical delivery
  vascularization (vWF expression): clearly less effective in inducing vascularization
[4]; MNA delivery, 100 μL of 500 ng/mL on days 5 and 7, day 19
  wound closure / healing rate: 95%
[4]; MNA delivery, day 17 and 19
  wound closure compared with other groups: significantly faster than both topical delivery and negative control groups
[4]; MNA delivery, day 19
  average wound size: 0.04 cm^2
[4]; MNA delivery, end of the experiments
  scarring: no evidence of scaring was observed
[4]; topical delivery
  hair growth in the wound area: no hair growth was observed
  wound closure rate compared to negative control: No significant difference was observed in the wound closure rate
[5]
  migration rate: comparable to the positive control group
[5]; in 4 hours
  scratch closure: 100%
[6]; LJI delivery, end of the study
  average healing rate: 81%
[6]; MNA delivery, end of the study
  average healing rate: 96%
  average wound size: 0.04 cm^2
[6]; TOP-administrated
  histological features at the central region of the wounds (H&E): contained a bed of granulation tissue with a partially healed center
[6]; intradermal delivery (MNA, LJI)
  histological features at the central region of the wounds (H&E): more advanced wound healing characteristics
[6]; intradermal delivery vs topical and controls, 19 days post-injury
  vascularization, IHC staining against CD31: Superior vascularization
[6]; intradermal delivery vs topical delivery and controls, 19 days after surgery
  overall healing: improved healing
[6]; topical delivery, end of the 20-day study
  wound closure: about 66%
[6]; topical delivery, vs no treatment or PBS via MNA and LJI
  wound closure rate compared to negative control groups: No significant difference was observed in the wound closure rate
